# A melting point compilation (Tetko et al.; mined from patent text by program, amines drawn as free bases though some values may be those of a salt)
row,Structure (SMILES),melting point
1,CCOc1ccccc1C1=NC(=O)C2=NC=NC2=N1,276 to 277 °C
2,CCOc1nc2c(nc1C(=O)Nc1nccs1)c(C)nn2CC,158 to 159 °C
3,CC(=O)Nc1ccc(OC(=O)C=CC=C(C)C=CC=C(C)C=CC2=C(C)CCCC2(C)C)cc1,219 to 222 °C
4,c1cn(CC2(CCCC3CCCC3)SCCS2)cn1,136 to 137 °C
5,O=C(CCCCN1CCCCC1)c1ccc2c(c1)Sc1cc(C(=O)CCCCN3CCCCC3)ccc1O2,128 to 130 °C
6,CCCN(c1nc(-c2ccc(OC)cc2Cl)c(C)s1)c1cc(-c2ccccc2C)ccc1OC,55 °C
7,OC(CNc1ncnc2nc[nH]c12)CN1CCN(C(c2ccc(F)cc2)c2ccc(F)cc2)CC1 (stereo not given),140 to 170 °C
8,CC(c1cc(F)cc(F)c1)n1ncc(-c2ccc(S(N)(=O)=O)cc2)c(-c2ccc(F)cc2)c1=O (stereo not given),139 to 141 °C
9,CNS(=O)(=O)c1csc(C(=O)OC)c1,142 °C
10,Cc1ccc(S(=O)(=O)N2C(=O)[C@H]3CC=C[C@H]32)cc1,93 to 95 °C
11,COC(C(=O)O)c1nn(-c2ccc(Cl)cc2)c2c1CCCC2 (stereo not given),185 to 186 °C
12,Cc1c(SCCCSCCn2c([N+](=O)[O-])cnc2C)ccnc1CNc1ncncc1Cl,119 to 121 °C
13,N#CC(C#N)=C(N)NCCCc1ccccc1,165 to 167 °C
14,O=Cc1nc2cc(F)ccc2s1,105 to 107 °C
15,CCCCCC#CCC(CC#CCCCCC)(C(=O)O)S(=O)(=O)c1ccc(OC)cc1,61 °C
16,COc1cc2c(cc1O)CCC(=O)N2Cc1cc(OC)c(OC)c(OC)c1,157 to 158 °C
17,CCOCc1nc2c(N)nc(C)c(C)c2n1CCNC(=O)NC1CCCCC1,188 to 190 °C
18,CC(C)N(C)c1nccc(Oc2ccc(NC(=O)c3cc(F)cc(N4CCCCC4)c3)c3ccccc23)n1,102 to 104 °C
19,CCOP(=O)(Cc1ccc(NC(=O)CCc2cnoc2-c2ccc(F)cc2)cc1)OCC,134 to 135 °C
20,COc1cc2nc(SCc3ccccc3)nn2c(Cl)n1,140 to 141 °C
21,CC(=O)NCC1(C)CC(O)c2ccccc2O1 (stereo not given),168 to 170 °C

row,Structure (SMILES),melting point
1,Nc1c(Cl)cc(C(O)CNCCCCCOCCc2cc3ccccc3o2)cc1Cl (stereo not given),49 to 52 °C
2,c1ccc2c(OCCCCCCCCOc3cccc4ccccc34)cccc2c1,60 °C
3,COc1cc2cc(CO)c(CO)c(-c3ccnc(-n4c(=O)cc(C(=O)N5CCN(CCO)CC5)c5ccccc54)c3)c2cc1OC,150 to 153 °C
4,CCCCCCCCCCc1nnn[nH]1,57 to 59 °C
5,CC(=O)OCC(O)COc1ccc2nc(S(N)(=O)=O)sc2c1 (stereo not given),173 to 175 °C
6,CC(C)c1cccc(C(C)C)c1NC(=O)C1c2ccccc2COc2cc(Br)ccc21 (stereo not given),170 to 172 °C
7,CS(=O)c1c(C(=N)NN)nn(-c2c(Cl)cc(C(F)(F)F)cc2Cl)c1N (stereo not given),210 °C
8,CC(C)(C)OC(=O)c1sc(Nc2ccc(Cl)cc2)c2c1CCc1cnoc1-2,197 to 198 °C
9,CC[C@@]1(C=O)CCCN(CCc2c[nH]c3ccc(OC)cc23)C1=O,108 °C
10,Cc1cc(CSCCNc2nc(NC(=O)Nc3ccccc3)nn2C)oc1CN(C)C,166 to 167 °C
11,CC(C)C(NC(=O)c1ccc(C(=O)NCC(=O)O)cc1)C(=O)N1CCCC1C(=O)NC(C(=O)C(F)(F)F)C(C)C (mixture of isomers),99 to 103 °C
12,NC(=O)c1ccc(F)c2c1OCC(N(CCCc1c[nH]c3ccc(F)cc13)CC1CC1)C2 (stereo not given),123 °C
13,CN(C)c1ncnc2c(-c3ccncc3)cnn12,184 to 185 °C
14,CN1CCC(c2c(O)cc(O)c3c(=O)cc(Oc4ccccc4)oc23)C(O)C1 (stereo not given),112 °C
15,c1cn2cc(-c3cnc4cc[nH]c4c3)cc(Nc3cc4n(n3)CCOC4)c2n1,192 to 195 °C
16,CC1CCCN1c1ccccc1NC(N)=S (stereo not given),145 to 148 °C
17,O=c1[nH]c2c(n(O)c1=O)C1=C(CCC(n3ccc(CN4CCN(C(c5ccccc5)c5ccccc5)CC4)c3)=C1)CC2,> 200 °C
18,OCc1nn(-c2ccccc2)c2c1CCCC2,75 to 77 °C
19,O=C1C[C@H](NC(=O)C(F)(F)F)C(=O)O1,116 to 118 °C
20,CCCNS(=O)(=O)c1ccc(Nc2nc(OCC3CCCCC3)c3nc[nH]c3n2)cc1,207 to 208 °C
21,O=C1CN(C(=O)N2CCCC2)c2c(F)cccc2N1,126 to 132 °C

row,Structure (SMILES),melting point
1,COc1cccc2c1C(CC(C)=O)NC2=O (stereo not given),176 to 178 °C
2,COC(=O)CN1C(=O)c2ccc(F)cc2S1(=O)=O,86 °C
3,CN(C)CCNC(=O)c1cn(C)c(=O)c2nc3ccccc3nc12,215 to 218 °C
4,c1ccc2c3c(cnc2c1)OCCN3,175 to 176 °C
5,C1=C(c2cc(-c3ccccc3)no2)CCN(Cc2c[nH]c3ncccc23)C1,224 to 226 °C
6,CC(O)c1cc(Cl)ccc1O (stereo not given),98 °C
7,NS(=O)(=O)c1ccc(-c2cnn(-c3ccc(F)c(F)c3)c(=O)c2-c2ccc(F)cc2)cc1,177 to 181 °C
8,O=C(OC1CCCCC1)c1ncn2c1[C@@H]1CCCN1C(=O)c1c(Cl)cccc1-2,166 to 167 °C
9,CC1(C)OC(=O)C(Br)(CCn2cccc2C(=O)c2ccccc2)C(=O)O1,89 to 91 °C
10,CCCC(=O)Nc1c(C)c2c(c(Cc3ccc(C(C)C)cc3)c1C)OCC2,168 to 169 °C
11,CC(C)(C)c1cc(C(=O)NCCCSc2ccncc2)cc(C(C)(C)C)c1O,203 to 204 °C
12,CS(=O)c1ccc(-n2cnc(-c3ccc(F)cc3)c2-c2ccncc2)cc1 (stereo not given),202 to 203 °C
13,c1ccc2[nH]c(-c3ccsc3)cc2c1,212 to 214 °C
14,COC(=O)C(C(C)C)N(C)S(=O)(=O)c1ccc(-c2ccc(NC(=O)c3oc4cccc(C(O)CO)c4c3C)cc2)cc1 (stereo not given),182 to 185 °C
15,COc1cc2ncc(NC3CCCCC3)nc2cc1N1CCOCC1,194 to 196 °C
16,Cc1ccc(C2(O)CCC(=O)N2C)cc1S(N)(=O)=O (stereo not given),124 °C
17,Nc1nc2c(ncn2CC(CO)CCO)c(=O)[nH]1 (stereo not given),235 °C
18,CC(C)[C@@H](NS(=O)(=O)c1ccc(-c2ccsc2)cc1)C(=O)O,169 °C
19,Nc1sc2c(c1C(=O)c1ccc3c(c1)Cc1ccccc1-3)CCN(Cc1ccccc1)C2,197 to 200 °C

# Second part, the compound after the results:
row,melting point,Structure (SMILES)
1,136 to 138 °C,O=C(O)c1ccc(C(F)(F)F)cc1[N+](=O)[O-]
2,98 to 100 °C,COc1cccc2sc(-c3ccc(C)cc3)nc12
3,208 to 210 °C,C=C1c2cccc(NC(=O)c3c(Cl)cccc3Cl)c2OC1(C)OC (stereo not given)
4,108 °C,Cc1cc(C(=CC(=O)N2CCOCC2)c2ccccc2)ccc1OS(=O)(=O)N(C)C
5,147 °C,"CN1C(c2cccc(F)c2)c2ccccc2S1(=O)=O (single isomer, unassigned; (+))"
6,171 to 173 °C,O=C(NC1CC1c1ccc(-c2ncn(-c3ccc(OC(F)(F)F)cc3)n2)cc1)Oc1ccccc1 (stereo not given)
7,190 to 191 °C,O=C(OCc1ccccc1)N1CCc2c(sc3nc(CN4C(=O)CCC4=O)c(Cl)c(-c4ccc(OCC(F)(F)F)cc4)c23)C1
8,158 to 161 °C,O=C(O)COc1ccc(OC(F)(F)F)cc1C(=S)NCc1cccc([N+](=O)[O-])c1
9,180 to 182 °C,O=C1Nc2ccccc2C12COc1cc(OC(F)(F)F)ccc12 (stereo not given)
10,67 to 70 °C,CCc1cn(CC)cc(-c2cccc(C(F)(F)F)c2)c1=O
11,184 to 187 °C,COc1ccc(OC)c2c1C[C@@H](O)[C@H](N1CCN(c3cccc(C(F)(F)F)c3)CC1)C2 (relative stereo)
12,74 °C,COC(=O)c1ccccc1Oc1ccc([N+](=O)[O-])cc1
13,204 to 205 °C,Cc1cc(-c2nc3cccnn3c2-c2ccnc(NC(=O)NCCS(C)(=O)=O)c2)ccc1F
14,169 to 170 °C,CCOC(=O)c1cc(NCc2ccccc2)c(Nc2cccc(C)c2)c(S(N)(=O)=O)c1
15,135 to 139 °C,N#Cc1c(F)cc(OCc2ccncc2)cc1OC(C(=O)O)c1ccccc1Cl (racemic)
16,200 to 204 °C,CN(Cc1cc2c(=O)c(C(=O)NCc3ccc(Cl)cc3)cn(C)c2o1)CC(O)CSc1nnc(N)s1 (stereo not given)
17,75 to 76 °C,C=C(C(=O)OC)C(=O)c1ccc(OC)cc1

row,melting point,Structure (SMILES)
1,134 to 135 °C,COc1ccc(-c2ccc([N+](=O)[O-])cc2)cc1OC1CC2CCC1C2 (stereo not given)
2,211 to 212 °C,CCc1c(C(=O)O)c(CC(=O)O)n(C)c1C(=O)c1ccc(Cl)cc1
3,127 to 129 °C,COc1cccc(Cc2cc3cccc(-c4cccc(C(=O)O)c4)c3o2)c1
4,75 °C,CCOC(=O)CC(NC(=O)c1ccccc1)C(=O)c1cccs1 (stereo not given)
5,63 to 65 °C,O=C(O)C(=O)c1ccc(C(F)(F)F)cc1
6,175 to 176 °C,COc1ccc2c(c1)C(=O)C(=Cc1cccc([N+](=O)[O-])c1)CC2
7,29 to 31 °C,COC(=O)Cc1ccsc1-c1ccccc1
8,210 to 212 °C,O=C(Nc1ccc(Cl)cc1)Nc1c(C(O)(C(F)(F)F)C(F)(F)F)ccc2ccccc12
9,145 °C,CCOC(=O)c1ccc(-c2ccc(-c3ccccc3)c(-c3cc4c(cc3O)C(C)(C)CCC4(C)C)c2)cc1
10,105 to 107 °C,COc1cccc(O[C@@H]2COc3ccc(OCc4ccccn4)cc3[C@@H]2O)c1 (relative stereo)
11,195 to 198 °C,O=C(CCNC(=O)OCc1ccccc1)NC1OC(C(=O)O)CC1O (stereo not given)
12,108 to 109 °C,N#CCCNC(=S)C1=CC(CF)(CF)Oc2ccc(C(F)(F)C(F)(F)F)cc21
13,84 °C,O=C(O)Cc1ccc(OCCNC(=O)C2Cc3ccccc3N2S(=O)(=O)c2ccc(-c3cc(C(F)(F)F)ccc3Cl)cc2)cc1 (stereo not given)
14,165 to 168 °C,O=C(NCc1ccc(C(F)(F)F)cc1)c1ccnc(NC(=O)c2ccccc2)c1
15,209 to 212 °C,COc1ccc2cc3c(=O)n(C)cc(C(=O)NCCN(C)C)c3nc2c1Cl
16,250 °C,O=C(NOC1CCCCO1)c1ccc(-c2ccc3ncnc(Nc4ccc(OCc5cccc(F)c5)c(Cl)c4)c3c2)s1 (stereo not given)
17,185 to 187 °C,CC(=O)Nc1c(C(=O)c2cccc(C#N)c2)[nH]c2cc(Cl)ccc12
